Measurements: patent US6924278B2, “Aroyl-piperazine derivatives, their preparation and their use as tachykinin antagonists” (Fujisawa Pharmaceutical Co., Ltd., priority 1997, dated 2005)
Counter-ions that a name gives are not always drawn.

Assays:
h-NK1 receptors = molecular target: T1, h-NK1 receptors (Homo sapiens, UniProt P25103); assay: Evaluation of NK1 antagonist transport efficiency to the central nervous system using a h-NK1 receptor binding assay (brain extract after i.v. dosing of rats); conditions: 5 min; compound extracted from brain of male SD rats 5 min after i.v. injection at the dose of 1 mg/kg; CHO cell membranes expressing h-NK1; read-out: inhibition rate of 125I-BH-Substance P binding to h-NK1 receptors
T1 construct: expressed in transfected cells; host or cells: CHO cells (permanent expression), crude cell membranes
Procedure: A. Evaluation of NK1 Antagonist Transport Efficiency to the Cental Nervous System using a h-NK1 Receptor Binding Assay
(1) Administration of Test Compound and Extraction of the Compound from Brain
Male SD rats were given an i.v. injection of a solution containing a test compound (1 mg/kg). 5 Min later the animals were anesthetized by ether, bled and perfused through the aorta ascendens with 20 ml of saline. The brain was rapidly removed, weighed and homogenized in 4 vol. ice-cold distilled water by using Polytoron (KINEMATICA). To extract the test compound, 500 μl of the homogenate, 100 μl of methanol, 500 μl of 0.1 N NaOH and 4 ml of ethyl acetate were mixed by shaking for 10 min at room temperature. The organic phase (2.5 ml) was recovered by centrifugation at 3,000 rpm for 10 min, dried and dissolved in dimethyl sulfoxide.
(2) h-NK1 Receptor Binding Assay
(a) Crude CHO Cell Membrane Preparation
CHO cells permanently expressing h-NK1 receptors were harvested and homogenized with a Dounce homogenizer at 4° C. in a buffer (0.25 M sucrose, 25 mM Tris-HCl (pH 7.4), 10 mM MgCl2, 1 mM EDTA, 5 μg/ml p-APMSF). The homogenate was centrifuged (500×g, 10 min), and the pellet was resuspended in the same buffer, homogenized, and centrifuged. The two supernatants were combined and centrifuged (100,000×g, 1 hour). The crude cell membranes thus isolated were resuspended in a buffer (25 mM Tris-HCl (pH 7.4), 10 mM MgCl2, 1 mM. EDTA, 5 μg/ml p-APMSF) and stored at −80° C. until use.
(b) ^125I-BH-Substance P Binding to the Prepared Membrane
Cell membranes (6 μg/ml) were incubated with ^125I-BH-Substance P (0.1 nM) with or without the extracted compounds in 0.25 ml of a medium (50 mM Tris-HCl (pH 7.4), 5 mM MnCl2, 20 μg/ml chymostatin, 40 μg/ml bacitracin, 4 μg/ml leupeptin, 5 μg/ml p-APMSF, 200 μg/ml BSA) at 22° C. for 90 min. At the end of the incubation period, the contents were quickly filtered through a Blue Mat 11740 filter (pretreated with 0.1% polyethylenimine for 3 hours prior to use) by using SKATRON Cell Harvester. The filter was then washed with a washing buffer (50 mM Tris-HCl (pH 7.4), 5 mM MnCl2). The radioactivity was counted by using an auto gamma counter (Packard RIASTAR 5420A). All data presented are specific binding defined as that displaceable by 3 μM unlabeled Substance P.

T1 sequence (P25103 whole entry): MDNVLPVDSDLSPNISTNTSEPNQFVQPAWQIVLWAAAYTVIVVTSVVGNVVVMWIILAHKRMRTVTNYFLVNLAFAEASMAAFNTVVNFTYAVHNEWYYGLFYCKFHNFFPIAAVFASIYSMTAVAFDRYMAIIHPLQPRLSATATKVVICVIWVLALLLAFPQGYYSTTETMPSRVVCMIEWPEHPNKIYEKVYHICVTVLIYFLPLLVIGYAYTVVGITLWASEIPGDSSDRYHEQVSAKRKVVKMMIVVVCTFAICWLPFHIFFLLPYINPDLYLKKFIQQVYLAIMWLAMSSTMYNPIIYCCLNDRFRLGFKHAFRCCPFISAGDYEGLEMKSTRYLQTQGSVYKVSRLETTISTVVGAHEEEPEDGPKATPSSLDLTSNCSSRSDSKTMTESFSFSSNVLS

Row | Compound | melting point [°C] | inhibition at 1 mg/kg (h-NK1 receptors) [%]
1 | Cc1ccc(C[C@@H]2CN(C/C=C/c3cccnc3)CCN2C(=O)c2cc(C(F)(F)F)cc(C(F)(F)F)c2)cc1C.Cl.Cl [6-(1), (2R)-1-[3,5-Bis(trifluoromethyl)benzoyl]-2-(3,4-dimethylbenzyl)-4-[(E)-3-(3-pyridyl)-2-propenyl]piperazine dihydrochloride] | 170 to 174 | > 80
2 | Cc1ccc(C[C@@H]2CN(C/C=C/CN3CCOCC3)CCN2C(=O)c2cc(Cl)cc(Cl)c2)cc1C.Cl.Cl [16-(2), (2R)-1-(3,5-Dichlorobenzoyl)-2-(3,4-dimethylbenzyl)-4-[(E)-4-morpholino-2-butenyl]piperazine dihydrochloride] | > 230 | > 80
3 | Cl.Cl.O=C(c1cc(C(F)(F)F)cc(C(F)(F)F)c1)N1CCN(C/C=C/c2cccnc2)C[C@H]1Cc1c[nH]c2ccccc12 [56-(2), (2R)-1-[3,5-Bis(trifluoromethyl)benzoyl]-2-[(1H-indol-3-yl)methyl]-4-[(2E)-3-(3-pyridyl)-2-propenyl]piperazine dihydrochloride] | 195 to 203 | > 80
4 | Cc1ccc(C[C@@H]2CN(CC#CCN3CCOCC(F)C3)CCN2C(=O)c2cc(C(F)(F)F)cc(C(F)(F)F)c2)cc1C (stereo partly drawn) [70-(2), (2R)-1-[3,5-Bis(trifluoromethyl)benzoyl]-2-(3,4-dimethylbenzyl)-4-[4-(tetrahydro-6-fluoro-1,4-oxazepin-4(5H)-yl)-2-butynyl]piperazine dihydrochloride] |  | > 80
5 | COCC1(C)COCCN1CC#CCN1CCN(C(=O)c2cc(C(F)(F)F)cc(C(F)(F)F)c2)[C@H](Cc2ccc(C)c(C)c2)C1.Cl.Cl (stereo partly drawn) [71-(1), (2R)-1-[3,5-Bis(trifluoromethyl)benzoyl]-2-(3,4-dimethylbenzyl)-4-[4-(3-methoxymethyl-3-methylmorpholino)-2-butynyl]piperazine dihydrochloride] | 155 to 160 | > 80
6 | Cc1ccc(C[C@@H]2CN(CC#CCN3[C@@H](C)COC[C@@H]3C)CCN2C(=O)c2cc(C(F)(F)F)cc(C(F)(F)F)c2)cc1C.Cl.Cl [71-(3), (2R)-1-[3,5-Bis(trifluoromethyl)benzoyl]-2-(3,4-dimethylbenzyl)-4-[4-((3S,5S)-3,5-dimethylmorpholino)-2-butynyl]piperazine dihydrochloride] | 160 to 165 | > 80
7 | COC[C@@H]1CN(CC#CCN2CCN(C(=O)c3cc(C(F)(F)F)cc(C(F)(F)F)c3)[C@H](Cc3ccc(C)c(C)c3)C2)CCO1.Cl.Cl [71-(5), (2R)-1-[3,5-Bis(trifluoromethyl)benzoyl]-2-(3,4-dimethylbenzyl)-4-[4-((2S)-2-methoxymethylmorpholino)-2-butynyl]piperazine dihydrochloride] | 85 to 95 | > 80
8 | COC[C@H]1CN(CC#CCN2CCN(C(=O)c3cc(C(F)(F)F)cc(C(F)(F)F)c3)[C@H](Cc3ccc(C)c(C)c3)C2)CCO1.Cl.Cl [71-(6), (2R)-1-[3,5-Bis(trifluoromethyl)benzoyl]-2-(3,4-dimethylbenzyl)-4-[4-((2R)-2-methoxymethylmorpholino)-2-butynyl]piperazine dihydrochloride] | 80 to 90 | > 80

Continued, values first:

Row | melting point [°C] | inhibition at 1 mg/kg (h-NK1 receptors) [%] | Compound
9 |  | > 80 | CC[C@H]1COCCN1CC#CCN1CCN(C(=O)c2cc(C(F)(F)F)cc(C(F)(F)F)c2)[C@H](Cc2c[nH]c3ccccc23)C1 [73-(2), (2R)-1-[3,5-Bis(trifluoromethyl)benzoyl]-4-[4-((3S)-3-ethylmorpholino)-2-butynyl]-2-[(1H-indol-3-yl)methyl]piperazine dihydrochloride]
10 | 130 to 140 | > 80 | COC[C@H]1COCCN1C/C=C/CN1CCN(C(=O)c2cc(C(F)(F)F)cc(C(F)(F)F)c2)[C@H](Cc2ccc(C)c(C)c2)C1.Cl.Cl [73-(3), (2R)-1-[3,5-Bis(trifluoromethyl)benzoyl]-2-(3,4-dimethylbenzyl)-4-[(E)-4-((3S)-3-methoxymethylmorpholino)-2-butenyl]piperazine dihydrochloride]
11 | 197 | > 80 | Cc1ccc(C[C@@H]2CN(CCCN3CCOCC3(C)C)CCN2C(=O)c2cc(C(F)(F)F)cc(C(F)(F)F)c2)cc1C.Cl.Cl [78-(4), (2R)-1-[3,5-Bis(trifluoromethyl)benzoyl]-2-(3,4-dimethylbenzyl)-4-[3-(3,3-dimethylmorpholino)propyl]piperazine dihydrochloride]
12 |  | > 80 | CC[C@@H]1COCCN1CCN1CCN(C(=O)c2cc(C(F)(F)F)cc(C(F)(F)F)c2)[C@H](Cc2ccc(C)c(C)c2)C1 [80-(1), (2R)-1-[3,5-Bis(trifluoromethyl)benzoyl]-2-(3,4-dimethylbenzyl)-4-[2-((3R)-3-ethylmorpholino)ethyl]piperazine dihydrochloride]
13 |  | > 80 | CC[C@@H]1COCCN1CCN1CCN(C(=O)c2cc(C(F)(F)F)cc(C(F)(F)F)c2)[C@H](Cc2c[nH]c3ccccc23)C1 [81-(10), (2R)-1-[3,5-Bis(trifluoromethyl)benzoyl]-4-[2-((3R)-3-ethylmorpholino)ethyl]-2-[(1H-indol-3-yl)methyl]piperazine dihydrochloride]
14 |  | > 80 | COc1ccc(CC2CN(CC#CCN3CCOCC3(C)C)CCN2C(=O)c2cc(C(F)(F)F)cc(C(F)(F)F)c2)cc1C (stereo not drawn) [85-(3), 1-[3,5-Bis(trifluoromethyl)benzoyl]-4-[4-(3,3-dimethylmorpholino)-2-butynyl]-2-(4-methoxy-3-methylbenzyl)piperazine dihydrochloride]
15 |  | > 80 | Cc1ccc(C[C@@H]2CN(CC#CCN3CCOCC3(C)C)CCN2C(=O)c2cc(N(C)C)cc(C(F)(F)F)c2)cc1C [90-(5), (2R)-1-[3-(Dimethylamino)-5-(trifluoromethyl)benzoyl]-2-(3,4-dimethylbenzyl)-4-[4-(3,3-dimethylmorpholino)-2-butynyl]piperazine dihydrochloride]
16 |  | > 80 | O=C(c1cc(C(F)(F)F)cc(C(F)(F)F)c1)N1CCN(CC#Cc2cccnc2)C[C@H]1Cc1c[nH]c2ccccc12 [Example 1-(1), (2R)-1-[3,5-bis(trifluoromethyl)benzoyl]-2-[(1H-indol-3-yl)methyl]-4-[3-(3-pyridyl)-2-propynyl]piperazine]
17 |  | > 80 | Cc1ccc(C[C@@H]2CN(CCOCCN3CCOCC3)CCN2C(=O)c2cc(C(F)(F)F)cc(C(F)(F)F)c2)cc1C [Example 22, (2R)-1-[3,5-Bis(trifluoromethyl)benzoyl]-2-(3,4-dimethylbenzyl)-4-[2-(2-morpholinoethoxy)ethyl]piperazine dihydrochloride]
18 |  | > 80 | O=C(c1cc(C(F)(F)F)cc(C(F)(F)F)c1)N1CCN(CC#CCNCc2cccnc2)C[C@H]1Cc1ccc2ccccc2c1 [Example 30, (2R)-1-[3,5-bis(trifluoromethyl)benzoyl]-4-[4-(3-pyridylmethylamino)-2-butynyl]-2-(2-naphthylmethyl)piperazine trihydrochloride]
19 |  | > 80 | CC[C@H]1COCCN1CC#CCN1CCN(C(=O)c2cc(C(F)(F)F)cc(C(F)(F)F)c2)[C@H](Cc2ccc(C)c(C)c2)C1 [Example 38, (2R)-1-[3,5-bis(trifluoromethyl)benzoyl]-4-[4-((3S)-3-ethylmorpholino)-2-butynyl]-2-(3,4-dimethylbenzyl)piperazine dihydrochloride]
20 |  | > 80 | COC[C@H]1COCCN1CCCCN1CCN(C(=O)c2cc(C(F)(F)F)cc(C(F)(F)F)c2)[C@H](Cc2ccc(C)c(C)c2)C1 [Example 82, (2R)-1-[3,5-bis(trifluoromethyl)benzoyl]-2-(3,4-dimethylbenzyl)-4-[4-((3S)-3-methoxymethylmorpholino)butyl]piperazine dihydrochloride]
21 |  | > 80 | CC1(C)COCCN1CC#CCN1CCN(C(=O)c2cc(C(F)(F)F)cc(C(F)(F)F)c2)C(Cc2ccc3c(c2)OCO3)C1 (stereo not drawn) [Example 84, 1-[3,5-bis-(trifluoromethyl)benzoyl]-4-[4-(3,3-dimethylmorpholino)-2-butynyl]-2-(3,4-methylenedioxybenzyl)piperazine dihydrochloride]
